Measured values from patent US12558428B2, “Heterobifunctional compounds and their use in treating disease” (Halda Therapeutics OpCo, Inc., priority 2024, dated 2026).

What was measured:
Type in all cases: cell-based
[1] = test system: T-Rex 293 cells having increased expression of estrogen receptor alpha protein; test: Cellular growth inhibition assay, T-Rex 293 cells, (+) doxycycline; conditions: T-REx-293, 72 h, Table 7-A; T-Rex 293 cells with doxycycline (increased ERα expression); 72 hours; CellTiter-Glo; read-out: (+) Dox GI50
Outline: (§1)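 Growth of a doxycycline-inducible ERα T-Rex 293 clone, induced or not with 3 ng/mL doxycycline, was followed for 72 h with test compound in hormone-depleted medium. CellTiter-Glo luminescence gave GI50.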

[2] = test system: MCF7 cells (ATCC #HTB-22); test: Cellular growth inhibition assay, MCF7 cells purchased from ATCC; conditions: Homo sapiens, MCF7, 144 h, Table 8-A; MCF7 cells purchased from ATCC; six days; CellTiter-Glo; read-out: GI50
Outline: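 GI50 values come from a four-parameter fit of CellTiter-Glo 2.0 luminescence after six days of compound exposure at 37° C. Seeding density depended on the source: 225 cells/well for ECACC MCF7, 1,500 for ATCC. Medium was RPMI 1640 with 10% FBS and 0.2 U/ml insulin.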

[3] = test system: T-Rex 293 cells lacking increased expression of estrogen receptor alpha protein; test: Cellular growth inhibition assay, T-Rex 293 cells, (−) doxycycline; conditions: T-REx-293, 72 h, Table 7-A; T-Rex 293 cells without doxycycline (lacking increased ERα expression); 72 hours; CellTiter-Glo; read-out: (−) Dox GI50
Outline: as §1

Compound	GI50 [1] [nM]	GI50 [2] [nM]	GI50 [3] [nM]
Cc1sc2c(c1C)C(c1ccc(N3CC(CN4CCN(c5ccc(C6=C(c7ccc(Cl)cc7Cl)CCCc7cc(C(=O)O)ccc76)cc5)CC4)C3)cc1)=N[C@@H](Cc1ncco1)c1nnc(C)n1-2 [IV-13]	< 50	< 50	50 to 500
Cc1sc2c(c1C)C(c1ccc(N3CCC(CN4CCN(c5ccc(C6=C(c7ccc(Cl)cc7Cl)CCCc7cc(C(=O)O)ccc76)cc5)CC4)CC3)cc1)=N[C@@H](Cc1ncco1)c1nnc(C)n1-2 [IV-14]	< 50	< 50	500 to 2500
Cc1sc2c(c1C)C(c1ccc(N3CCC(O)(CN4CCN(c5ccc(C6=C(c7ccc(Cl)cc7Cl)CCCc7cc(C(=O)O)ccc76)cc5)CC4)CC3)cc1)=N[C@H](C)c1nnc(C)n1-2 [IV-15]	> 2500	500 to 2500	> 2500
Cc1sc2c(c1C)C(c1ccc(N3CCC(O)(CN4CCN(c5ccc(C6=C(c7ccccc7)CCCc7cc(C(=O)O)ccc76)cc5)CC4)CC3)cc1)=N[C@@H](C)c1nnc(C)n1-2 [IV-16]	< 50	< 50	500 to 2500
Cc1sc2c(c1C)C(c1ccc(N3CCC(O)(CN4CCN(c5ccc(C6=C(c7ccccc7)CCCc7cc(O)ccc76)cc5)CC4)CC3)cc1)=N[C@@H](C)c1nnc(C)n1-2 [IV-17]	< 50	< 50	500 to 2500
Cc1sc2c(c1C)C(c1ccc(N3CCC(O)(CN4CCN(c5ccc(C6=C(c7ccccc7Cl)CCCc7cc(C(=O)O)ccc76)cc5)CC4)CC3)cc1)=N[C@@H](C)c1nnc(C)n1-2 [IV-18]	< 50	< 50	500 to 2500
Cc1sc2c(c1C)C(c1ccc(N3CCC(O)(CN4CCN(c5ccc(C6=C(c7ccc(Cl)cc7Cl)CCCc7cc(O)ccc76)cc5)CC4)CC3)cc1)=N[C@@H](C)c1nnc(C)n1-2 [IV-19]	< 50	50 to 500	500 to 2500
Cc1sc2c(c1C)C(c1ccc(N3CCC(O)(CN4CCN(c5ccc(C6=C(c7ccccc7Cl)CCCc7cc(O)ccc76)cc5)CC4)CC3)cc1)=N[C@@H](C)c1nnc(C)n1-2 [IV-20]	< 50	< 50	500 to 2500
Cc1sc2c(c1C)C(c1ccc(N3CCC(F)(CN4CCC(c5ccc(C6=C(c7ccc(Cl)cc7Cl)CCCc7cc(C(=O)O)ccc76)cc5)CC4)CC3)cc1)=N[C@@H](C)c1nnc(C)n1-2 [IV-21]	< 50	50 to 500	500 to 2500
Cc1sc2c(c1C)C(c1ccc(N3CC(CN4CC(CN5CC(c6ccc(C7=C(c8ccccc8)CCCc8cc(C(=O)O)ccc87)cc6)C5)C4)C3)cc1)=N[C@@H](C)c1nnc(C)n1-2 [IV-22]	< 50	< 50	50 to 500
Cc1sc2c(c1C)C(c1ccc(N3CC(CC4CN(CC5CN(c6ccc(C7=C(c8ccccc8)CCCc8cc(C(=O)O)ccc87)cc6)C5)C4)C3)cc1)=N[C@@H](C)c1nnc(C)n1-2 [IV-23]	< 50	< 50	50 to 500
Cc1sc2c(c1C)C(c1ccc(N3CC(C[C@H]4CC[C@H](CN5CC(c6ccc(C7=C(c8ccccc8)CCCc8cc(C(=O)O)ccc87)cc6)C5)CC4)C3)cc1)=N[C@@H](C)c1nnc(C)n1-2 [IV-24]	< 50	< 50	500 to 2500
Cc1sc2c(c1C)C(c1ccc(N3CC(CN4CCN(CC5CN(c6ccc(C7=C(c8ccc(F)cc8F)CCCc8cc(C(=O)O)ccc87)cc6)C5)CC4)C3)cc1)=N[C@@H](C)c1nnc(C)n1-2 [IV-25]	< 50	< 50	50 to 500
Cc1sc2c(c1C)C(c1ccc(N3CCC(O)(CN4CCN(c5ccc(C6=C(c7ccc(F)cc7F)CCCc7cc(C(=O)O)ccc76)cc5)CC4)CC3)cc1)=N[C@@H](C)c1nnc(C)n1-2 [IV-26]	< 50	< 50	500 to 2500
Cc1sc2c(c1C)C(c1ccc(N3CCC(F)(CN4CCN(c5ccc(C6=C(c7ccc(Cl)cc7Cl)CCCc7cc(C(=O)O)ccc76)cc5)CC4)CC3)cc1)=N[C@@H](C)c1nnc(C)n1-2 [IV-27]	50 to 500	50 to 500	500 to 2500
Cc1sc2c(c1C)C(c1ccc(N3CCC(O)(CN4CCN(c5ccc(C6=C(c7ccccc7)CCCc7cc(C(=O)O)ccc76)c(F)c5)CC4)CC3)cc1)=N[C@@H](C)c1nnc(C)n1-2 [IV-28]	< 50	< 50	500 to 2500
Cc1sc2c(c1C)C(c1ccc(N3CC(CC4(O)CCN(CC5CN(c6ccc(C7=C(c8ccccc8)CCCc8cc(C(=O)O)ccc87)cc6)C5)CC4)C3)cc1)=N[C@@H](C)c1nnc(C)n1-2 [IV-29]	< 50	< 50	50 to 500
Cc1sc2c(c1C)C(c1ccc(N3CCC(O)(CN4CCN(c5ccc(C6=C(c7ccc(Cl)cc7Cl)CCCc7cc(C(=O)O)ccc76)cc5)CC4)CC3)cc1)=N[C@H](Cc1ncco1)c1nnc(C)n1-2 [IV-30]	500 to 2500	50 to 500	500 to 2500

Compound	GI50 [1] [nM]	GI50 [2] [nM]	GI50 [3] [nM]
Cc1sc2c(c1C)C(c1ccc(N3CCC(O)(CN4CCN(c5ccc(C6=C(c7ccc(Cl)cc7Cl)CCCc7cc(C(=O)O)ccc76)cc5)CC4)CC3)cc1)=N[C@@H](Cc1ncco1)c1nnc(C)n1-2 [IV-31]	< 50	< 50	50 to 500
Cc1sc2c(c1C)C(c1ccc(C3CN(C[C@H]4CC[C@H](CN5CC(c6ccc(C7=C(c8ccccc8)CCCc8cc(C(=O)O)ccc87)cc6)C5)CC4)C3)cc1)=N[C@@H](C)c1nnc(C)n1-2 [IV-32]	< 50	50 to 500	50 to 500
Cc1sc2c(c1C)C(c1ccc(N3CCC(O)(CN4CCN(c5ccc(C6=C(c7ccccc7)CCCc7cc(C(=O)O)ccc76)cc5F)CC4)CC3)cc1)=N[C@@H](C)c1nnc(C)n1-2 [IV-33]	< 50	< 50	500 to 2500
Cc1sc2c(c1C)C(c1ccc(N3CCC(O)(CN4CCN(c5ccc(C6=C(c7ccccc7Cl)CCCc7cc(C(=O)O)ccc76)c(F)c5)CC4)CC3)cc1)=N[C@@H](C)c1nnc(C)n1-2 [IV-34]	< 50	< 50	50 to 500
Cc1sc2c(c1C)C(c1ccc(N3CCC(O)(CN4CCN(c5ccc(C6=C(c7ccccc7Cl)CCCc7cc(C(=O)O)ccc76)cc5F)CC4)CC3)cc1)=N[C@@H](C)c1nnc(C)n1-2 [IV-35]	< 50	< 50	500 to 2500
Cc1sc2c(c1C)C(c1ccc(N3CC(CN4CC(CC5CN(c6ccc(C7=C(c8ccccc8)CCCc8cc(C(=O)O)ccc87)cc6)C5)C4)C3)cc1)=N[C@@H](C)c1nnc(C)n1-2 [IV-36]	< 50	< 50	50 to 500
Cc1sc2c(c1C)C(c1ccc(N3CCC(O)(CN4CCN(c5ccc(C6=C(c7ccc(F)cc7)CCCc7cc(C(=O)O)ccc76)cc5)CC4)CC3)cc1)=N[C@@H](C)c1nnc(C)n1-2 [IV-37]	< 50	< 50	500 to 2500
Cc1sc2c(c1C)C(c1ccc(N3CC(CN4CCN(CC5CN(c6ccc(C7=C(c8ccc(F)cc8)CCCc8cc(C(=O)O)ccc87)cc6)C5)CC4)C3)cc1)=N[C@@H](C)c1nnc(C)n1-2 [IV-38]	< 50	< 50	500 to 2500
Cc1sc2c(c1C)C(c1ccc(N3CCC(CN4CCN(c5ccc(C6=C(c7ccccc7)CCCc7cc(O)ccc76)cc5)CC4)CC3)cc1)=N[C@@H](C)c1nnc(C)n1-2 [IV-39]	< 50	50 to 500	> 2500
Cc1sc2c(c1C)C(c1ccc(N3CCC(CN4CCN(c5ccc(C6=C(c7ccccc7Cl)CCCc7cc(O)ccc76)cc5)CC4)CC3)cc1)=N[C@@H](C)c1nnc(C)n1-2 [IV-40]	< 50	< 50	> 2500
Cc1sc2c(c1C)C(c1ccc(N3CC4(CC(CN5CCC(c6ccc(C7=C(c8ccccc8)CCCc8cc(C(=O)O)ccc87)cc6)CC5)C4)C3)cc1)=N[C@@H](C)c1nnc(C)n1-2 [IV-41]	< 50	< 50	50 to 500
Cc1sc2c(c1C)C(c1ccc(N3CC(CC4(O)CN(CC5CN(c6ccc(C7=C(c8ccccc8)CCCc8cc(C(=O)O)ccc87)cc6)C5)C4)C3)cc1)=N[C@@H](C)c1nnc(C)n1-2 [IV-42]	< 50	< 50	50 to 500
Cc1sc2c(c1C)C(c1ccc(N3CC(O)(CC4CN(CC5CN(c6ccc(C7=C(c8ccccc8)CCCc8cc(C(=O)O)ccc87)cc6)C5)C4)C3)cc1)=N[C@@H](C)c1nnc(C)n1-2 [IV-43]	< 50	< 50	50 to 500
Cc1sc2c(c1C)C(c1ccc(N3CC4(CCC(CN5CCC(c6ccc(C7=C(c8ccccc8)CCCc8cc(C(=O)O)ccc87)cc6)CC5)CC4)C3)cc1)=N[C@@H](C)c1nnc(C)n1-2 [IV-44]	< 50	< 50	500 to 2500
Cc1sc2c(c1C)C(c1ccc(N3CC(O)(CN4CCN(CC5CN(c6ccc(C7=C(c8ccccc8)CCCc8cc(C(=O)O)ccc87)cc6)C5)CC4)C3)cc1)=N[C@@H](C)c1nnc(C)n1-2 [IV-45]	< 50	< 50	< 50
Cc1sc2c(c1C)C(c1ccc(C3CN(CC4(O)CCN(CC5CN(c6ccc(C7=C(c8ccccc8)CCCc8cc(C(=O)O)ccc87)cc6)C5)CC4)C3)cc1)=N[C@@H](C)c1nnc(C)n1-2 [IV-46]	< 50	50 to 500	500 to 2500
Cc1sc2c(c1C)C(c1ccc(N3CC4(CCC(CN5CCC(c6ccc(C7=C(c8ccccc8)CCCc8cc(O)ccc87)cc6)CC5)CC4)C3)cc1)=N[C@@H](C)c1nnc(C)n1-2 [IV-47]	< 50	< 50	500 to 2500
